Measurements published in patent US20210154281A1, “CELL-BASED CANCER VACCINES AND CANCER THERAPIES” (Massachusetts Institute of Technology, priority 2019, published 2021).

How the values were obtained:
[1] = Cell viability (survival) assay with CellTiter-Glo, 48 hours; type: cell-based, mouse; settings: mouse, B16F10 melanoma tumor cells, 48 hours, normalized to DMSO-treated control cells
Protocol: For assays of survival, 15,000 cells were plated per well in a 96-well plate in 100 μl media with 5 replicates per condition. Wells along the four edges of the plate were not used. Following cell attachment, the indicated drugs were added in an equal volume of media, and incubated for an additional 48 hours. The media was then removed and replaced with 100 ul of fresh media at room temperature. Following a 30 minute incubation at room temperature, 50 μl of CellTiter-Glo reagent was added, followed by 2 minutes of gentle mixing. The plate was incubated at room temperature for an additional 10 minutes. 100 μl of supernatant was transferred to a 96-well white opaque plate and luminescence was read on a Tecan microplate reader. Values were normalized to those of DMSO-treated control cells.

[2] = system: B16-Ova cells; test: In vitro cross presentation assay: drug-treated B16-Ova cells, BMDC and OT-1 CD8+ T-cells, IFN-γ+ T-cells by flow cytometry; type: cell-based, mouse; set-up: reduction of the percentage of IFNg+ T-cells by siRNA knockdown of calreticulin / reduction of T-cell IFN-γ responses / frequency of IFN-γ+ T-cells: concentration or dose not given beside the values; settings: for inducing the appearance of IFNγ+OT-1 CD8+ T-cells: 50 μM etoposide or 10 μM mitoxantrone; for reduction of the percentage of IFNg+ T-cells by siRNA knockdown of calreticulin: compared to siRNA controls
Protocol: (§1) B16-Ova or MC-38 Ova cells were treated with various doses of chemotherapeutic drugs for 24 h followed by extensive washing in IMDM (10% FBS, P/S). Subsequently 1×10^6 treated cells were co-cultured with 2.5×10^5 BMDC per well of a 24-well plate for each condition tested. After 24 hours of co-culture, supernatants were removed from each well and the BMDC washed 2-3 times in T-cell media (RPMI containing 10% FBS, 20 mM HEPES, 1 mM sodium pyruvate, 55 uM b-mercaptoethanol, 2 mM L-glutamine, nonessential amino acids and antibiotics). CD8+OT-I T-cells isolated from spleens of OT-I mice were then co-cultured with the BMDC at 125,000 T-cells per well to achieve an effector to target ratio of 0.5. Where indicated, BMDC and/or T-cells were also exposed to chemotherapy drugs. After a 12-15 h incubation, IFN-g producing T-cells were identified and quantified by intra-cellular cytokine staining and flow cytometry using a BD LSR II or Fortessa flow cytometer. Cells were first gated for CD3 expression, then re-gated for CD8 and IFNg expression.
An experimental system was developed to assess dendritic cell-mediated T-cell priming using the B16-Ova cells, in combination with primary bone-marrow derived dendritic cells (BMDC) and OT-I CD8+ T-cells expressing a TCR transgene that specifically recognizes the Ova-derived peptide […] (SEQ ID NO:1) in the context of H2-Kb (OT-1) (Clarke, et al., Immunol Cell Biol., 78(2):110-7 (2000); Hogquist, et al., Cell, 76(1):17-27 (1994)). […] The treated B16-Ova cells/BMDC co-culture was then incubated with purified CD8+ T-cells obtained from the spleens of OT-1 mice, and the appearance of IFNg+CD8 T-cells was measured 12-15 hours later by intracellular staining and subsequent quantification using flow cytometry.

[3] = system: MC-38-Ova cells; test: In vitro cross presentation assay: drug-treated MC-38-Ova cells, BMDC and OT-1 CD8+ T-cells; type: cell-based, mouse
Protocol: as §1

[4] = system: B16-Ova cells; test: ATP levels in cell-free culture media by CellTiter-Glo; type: cell-based, mouse; settings: for ATP (nM) MEAN: culture media 24-48 hours after treatment
Protocol: For measurement of ATP levels, cell-free culture media obtained as above was analyzed by CellTiter-Glo according to the manufacturer's protocol. Values were converted to ATP concentrations using a standard curve generated using pure ATP.

[5] = system: B16-Ova cells; test: Proportion of live and dead cells (AnnV/DAPI) after 24 h treatment with increasing doses; type: cell-based, mouse
Protocol: B16-Ova cells or MC-38-Ova cells were treated with various doses of chemotherapy as indicated in FIGS. 1F-1I for 24 hours after which the floating fraction of cells was transferred to a separate tube and washed with PBS (for AnnV/DAPI staining) or IMDM (for co-culture with BMDC). The attached fraction was rinsed 1× with PBS, detached using 5 mM EDTA (in PBS), washed with PBS or IMDM and transferred to a separate tube. Separately, cells treated with chemotherapy for 24 h were re-plated at 1 million cells per well of a 24-well plate in 500 ul of IMDM (10% FBS; P/S). Cell-free supernatants were collected after a further 24 h. […] Lysate of the total chemotherapy-treated cell mixture was generated by three rounds of freeze-thawing by alternate incubations in liquid nitrogen and a 37 C water bath.

[6] = system: RIPK1; test: Western blotting with anti phosphoRIPK1(S166) antibody; type: cell-based, mouse; settings: B16-Ova cells
[7] = system: p38MAPK; test: Western blotting of cell lysates with anti-phospho-p38 antibody; type: cell-based, mouse; settings: B16-Ova cells
[8] = system: CT26 mouse colon cancer cells; settings: previously reported; cited from earlier work
[9] = system: B16-Ova cells; test: Calreticulin surface exposure by flow cytometry; settings: for CALR (%): 24 hours after treatment, representative experiment; for level of externalized calreticulin: 24 hours of drug exposure
[10] = B16-Ova cells treated with 10 uM for 24 h
[11] = B16-Ova cells treated with 50 uM for 24 h
[12] = MC-38-Ova cells treated with 10 uM for 24 h
[13] = MC-38-Ova cells treated with 50 uM for 24 h

Row | SMILES | viability at 48 h, 10 µM [1] [%] | viability at 48 h, 50 µM [1] [%] | inducing the appearance of IFNγ+OT-1 CD8+ T-cells [2] | % CD3+CD8+IFN-γ+ T-cells MEAN [2, 10] [%] | % CD3+CD8+IFN-γ+ T-cells MEAN [2, 11] [%] | reduction of the percentage of IFNg+ T-cells by siRNA knockdown of calreticulin [2] [%] | % CD3+CD8+IFN-γ+ T-cells MEAN [3, 12] [%] | % CD3+CD8+IFN-γ+ T-cells MEAN [3, 13] [%] | ATP (nM) MEAN ([4]; 10 uM) [nM] | ATP (nM) MEAN ([4]; 50 uM) [nM] | RIPK1 activation [6] | p38MAPK activation [7] | immunogenic cell death / calreticulin exposure [8] | CALR (%) ([9]; 10 uM) | CALR (%) ([9]; 50 uM) | level of externalized calreticulin [9] | also measured
1 | O=C1c2c(O)ccc(O)c2C(=O)c2c(NCCNCCO)ccc(NCCNCCO)c21 [Mito, mitoxantrone] | 0.0743 | 0.000452 | highly effective | 5.57 | 0.44 | ~80 | 3.433 | 0.148 | 1.02 | 1.80 | induce RIPK1 activation | p38MAPK activation | promote strong immunogenic cell death | 17.10 | 4.15 | highest level of externalized calreticulin | IFN-γ responses in T-cells ([2]; 5 uM): maximum IFN-γ responses; IFN-γ responses in T-cells ([2]; 10 uM): lower IFN-γ response; IFN-γ responses in T-cells ([2]; 25 uM and higher doses): undetectable; % CD3+CD8+IFN-γ+ T-cells MEAN ([2]; Table 7 experiment, 10 uM alone): 3.98%; % CD3+CD8+IFN-γ+ T-cells MEAN ([2]; siCalR (calreticulin knockdown) B16-Ova cells, 10 uM): 1.10%; % CD3+CD8+IFN-γ+ T-cells MEAN ([2]; siCtrl (control siRNA) B16-Ova cells, 10 uM): 4.63%; ATP release ([4]; after 24 hours of treatment): Substantial ATP release; dead cell proportion ([5]; 25 uM and higher doses): greater than 90%; dead cell proportion ([5]; between 5 and 10 uM): ~50%
2 | COc1cc([C@@H]2c3cc4c(cc3[C@@H](O[C@@H]3O[C@@H]5CO[C@@H](C)O[C@H]5[C@H](O)[C@H]3O)[C@H]3COC(=O)[C@H]23)OCO4)cc(OC)c1O [Etop, etoposide] | 34.9 | 36.1 | highly effective | 0.86 | 4.80 | ~50 | 13.13 | 3.83 | 2.05 | 1.35 | induce RIPK1 activation | p38MAPK activation | ineffective at inducing ER stress and calreticulin exposure | 9.69 | 9.69 | intermediate levels of calreticulin exposure | % CD3+CD8+IFN-γ+ T-cells MEAN ([2]; Table 7 experiment, 50 uM alone): 4.11%; % CD3+CD8+IFN-γ+ T-cells MEAN ([2]; Table 10 experiment, Etop 50 uM alone): 22.90%; appearance of IFN-γ+ CD8+ T-cells ([2]; co-exposure of both BMDCs and tumor cells, compared to exposure of B16-Ova cells alone): significantly reduced the appearance of IFN-γ+ CD8+ T-cells; magnitude of IFN-γ responses in T-cells ([2]; increasing doses from 0 to 100 uM): corresponding increase in the magnitude of IFN-γ responses; % CD3+CD8+IFN-γ+ T-cells MEAN ([2]; siCalR (calreticulin knockdown) B16-Ova cells, 50 uM): 2.71%; % CD3+CD8+IFN-γ+ T-cells MEAN ([2]; siCtrl (control siRNA) B16-Ova cells, 50 uM): 5.25%; tumor-directed T-cells relative to the level when exposure is limited to the tumor cells alone ([2]; triple co-exposure of tumor cells, BMDCs and T-cells): less than 10%; inducing the appearance of IFNγ+OT-1 CD8+ T-cells ([3]; MC-38-Ova, etoposide 10 μM): the most effective treatment; proportion of dead cells (AnnV or DAPI single or double positive) ([5]; 25 uM): ~30%; further increase of the proportion of dead cells ([5]; 100 uM): ~5%; proportion of dead cells (AnnV or DAPI single or double positive) ([5]; between 25 and 75 uM): ~30%
